The results in this text go back to patent US20080139493A1, “Bi- or Tetra-Guanidino-Biphenyl Compounds as Small Molecule Carriers” (priority 2004, published 2008).

The subject of test [1] is Human osteosarcoma cells (U2OS). The test can be described thus: Uptake and sub-cellular localization by confocal microscopy. It counts as cell-based. Particulars: 10 μM, 10 minutes incubation, no fixation. As to the method: In order to observe the ability of the di-guanidine and tetra-guanidine compounds to transport small molecules, they were coupled to FITC, which emits light at 514 nm after laser excitation at 492 nm. Human osteosarcoma cells (U2OS) were cultured on glass coverslips and incubated for 10 minutes with each compound to a final concentration of 10 μM. They were compared to FITC conjugated to TAT and FITC alone. After incubation, cells were rinsed in PBS and mounted, without fixation, onto slides and visualized by confocal microscopy. […] Cells were visualized under higher magnification (63×), to assess sub-cellular localization of the FITC.

In test [2] the test system is CD3+ cells from peripheral blood mononuclear cells. The test can be described thus: Delivery of FITC to primary suspension cells, FACS analysis. Type of test: cell-based. The following applies: primary human CD3+ cells, 10 µM, 15 minutes. On the procedure: To determine whether SMCs deliver small molecules to primary human cells, CD3+ cells were isolated by MACS separation from freshly harvested peripheral blood mononuclear cells. This purified cell population was treated with 10 µM of each compound for 15 minutes. Cells were then washed in PBS and analyzed by FACS.
Background: In flow cytometry, cells or beads pass a laser one at a time.

Another test concerns U2OS cells. Description: Delivery of FITC, FACS analysis of live cells. Particulars: 10 µM, 15 minutes. It counts as cell-based, human. As to the method:
The efficiency of delivery of FITC by these guanidine carriers was tested by FACS analysis. U2OS cells were treated with at a concentration of 10 µM with each of the compounds indicated for 15 minutes, and then harvested by trypsinization, and washed in PBS. The live cells were then subjected to FACS analysis.

In test [3] the test system is NIH3T3 fibroblasts. The test can be described thus: S-phase assay (cellular DNA synthesis, BrdU incorporation). It counts as cell-based, mouse. On the procedure:
(§1) A) NIH3T3 fibroblasts were incubated for one hour with 10 μM recombinant His6-Geminin or 10 μM Geminin-SMC conjugate. Cells were fixed, permeabilised and stained with a polyclonal rabbit anti-Geminin primary, a FITC-conjugated anti-rabbit secondary and counterstained with DAPI. […] B) NIH3T3 fibroblasts were driven into quiescence by density-dependent growth arrest and after 5 days were released back into the cell cycle by subculturing into fresh growth medium. 8 hours after release from quiescence 10 μM of Geminin-SMC was added to the cells. At 21 hours following release cells were pulse-labelled for one hour with 50 μM BrdU. Subsequently cells were fixed, permeabilised and stained with FITC-conjugated anti-BrdU and counterstained with propidium iodide. In a control population 68% of cells were able to re-enter the cell cycle following release whilst in the presence of Geminin-SMC replication dropped by 47% respectively.
Essentially the system is set up as follows: Mouse or human fibroblasts are arrested in quiescence (G0) by contact inhibition.
The quiescent fibroblasts are then subcultured at lower density to release fibroblasts from G0. Re-entry into the DNA synthesis phase (S phase) occurs 21 hours after the release. Pre-replicative complexes (pre-RCs) essential for unwinding of the DNA helix prior to DNA synthesis are assembled at replication origins 16-18 hrs after the release from G0.
One sample of cells is untreated and the other is treated by exposure to an SMC-conjugate according to the present invention. Treatment takes place before pre-RC assembly, preferably at 5-10 hours after release from G0.
The ability of cells to start S phase is monitored with a BrdU pulse at 21 hours. BrdU becomes incorporated into DNA during DNA synthesis and is thus a marker for entry into S phase. BrdU incorporation is then assayed and treated cells are compared with non-treated cells.
For synchronisation in G0, NIH3T3 fibroblasts are seeded at high density and driven into density-dependent growth arrest. […]
DNA synthesis is monitored by pulse labelling cells 21 h after release from G0 for 1 h with 50 μM BrdU. […]
The percentage of cells undergoing DNA replication is determined from images obtained by confocal fluorescence microscopy on a Leica TCS SP confocal microscope. […]
Plasmids expressing […] are microinjected into the nuclei of NIH3T3 fibroblasts at the treatment time 8 hours after release from density-dependent growth arrest in G0. The ability of cells to initiate DNA replication was assessed by pulse labelling cells 19 hours after release from G0 for 1 hour with bromodeoxyuridine (BrdU). Expression of E1̂E4 protein and incorporation of BrdU was monitored by confocal immunofluorescence microscopy. […]

Test [4] deals with NIH3T3 fibroblasts. Description: Uptake of Geminin-SMC conjugate, anti-Geminin immunofluorescence. Type of test: cell-based, mouse. Particulars: 10 μM, one hour. As to the method: as §1

Consider `N=C(N)NCCOc1cccc(-c2ccc(CNC(=S)Nc3ccc4c(c3)C(=O)OC43c4ccc(O)cc4Oc4cc(O)ccc43)c(OCCNC(=N)N)c2OCCNC(=N)N)c1OCCNC(=N)N` [tetra-guanidine-FITC, [2,3,2′,3′-Tetra(2-guanidino-ethyloxy)-biphenyl-4-ylmethyl]-thioureido-fluorescein], for which the “sub-cellular localization of the FITC at higher magnification (63×)” value in test [1] is “intense nuclear fluorescence”. The same molecule yielded a cells fluorescent in test [2] of 62%. Moreover, in the test with U2OS cells, the “cells fluorescent above the background auto-fluorescence” value is given as 80%.

With `N=C(N)NCCOc1c(CNC(=S)Nc2ccc3c(c2)C(=O)OC32c3ccc(O)cc3Oc3cc(O)ccc32)ccc(-c2ccccc2)c1OCCNC(=N)N` [di-guanidine-FITC, 2-[2,3-bis(2-guanidino-ethyloxy)-biphenyl-4-ylmethyl]-thioureido-fluorescein], in test [1], the “sub-cellular localization of the FITC at higher magnification (63×)” value is “both nuclear and cytoplasmic fluorescence”. The molecule also had a cells fluorescent in test [2] of 88%. In addition, the “cells fluorescent above the background auto-fluorescence” value in the test on U2OS cells was found to be 80%.

B1: Geminin-SMC: conjugate of a compound of formula Ic with the pre-RC assembly repressor protein Geminin (209 aa) (conjugate, UniProt O75496 1-209, looked up)
chain: MNPSMKQKQEEIKENIKNSSVPRRTLKMIQPSASGSLVGRENELSAGLSKRKHRNDHLTSTTSSPGVIVPESSENKNLGGVTQESFDLMIKENPSSQYWKEVAEKRRKALYEALKENEKLHKEIEQKDNEIARLKKENKELAEVAEHVQYMAELIERLNGEPLDNFESLDNQEFDSEEETVEDSLVEDSEIGTCAEGTVSSSTDAKPCI
modifications: full-length conjugated to SMC compound of formula Ic
With B1, the “drop of replication (BrdU incorporation)” value with NIH3T3 fibroblasts [3] (10 μM added 8 hours after release from quiescence, BrdU pulse at 21 hours, control population 68% re-entered cell cycle) worked out at 47%. Also, the “number of cells entering S phase” value in the test on NIH3T3 fibroblasts [3] (10 fM to 10 μM, treatment 8 hours after G0 release) was “dramatic reduction”. In addition, the “DNA synthesis as monitored by S-phase assay” value in the test on NIH3T3 fibroblasts [3] (treatment 8 hours after G0 release, BrdU pulse at 21 hours, concentration range per example (10 fM to 30 μM)) is reported as “inhibits DNA synthesis”. In addition, in the test with NIH3T3 fibroblasts [3] (treatment 8 hours after G0 release, concentration range per example (10 fM to 30 μM)), the “uptake of SMC-conjugate into the cells” value is recorded as “efficiently taken into the cells”. In addition, in the test with NIH3T3 fibroblasts [4], the “FITC staining (anti-Geminin) within the cells” value is on record as “strong FITC staining”.

B2: His6-Geminin: recombinant His6-Geminin, unconjugated form of Geminin (protein, UniProt O75496 1-209, looked up)
Geminin: B1 chain
modifications: His6 tag
Regarding B2, in the test with NIH3T3 fibroblasts [4], the “FITC staining (anti-Geminin) within the cells” value is given as “no FITC staining”.
